# pKi: −log10 of the molar value.
# Key:
# [1] = molecular target: HCV NS3 protease genotype 3a (3A-1) (Hepatitis C virus genotype 3a, UniProt Q81258); assay: HCV NS3 protease time-resolved fluorescence (TRF) assay, genotype 3a; format: biochemical; settings: Ki 3a
# How it was run: (§1)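 Steps: compound plus NS3/NS4A enzyme for 10 minutes; add peptide substrate to 25 nM; let cleavage proceed 6 hours at room temperature; read product fluorescence (340 nm excitation, 615 nm emission, delayed 400 μs). Enzyme levels gave signal/background 5-20.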
# [2] = molecular target: T1, HCV genotype 1b (BK) NS3 modified enzyme with a R155K mutation (Hepatitis C virus genotype 1b, UniProt P26663, R1181K); assay: HCV NS3 protease time-resolved fluorescence (TRF) assay, genotype 1b R155K; format: biochemical; settings: Ki 1b R155K
# T1 construct: HCV genotype 1b (BK) NS3 modified enzyme
# How it was run: as §1
# [3] = genotype 1b (BK) NS3 R155K, single value
Compound,pKi [1],"pKi [2, 3]",pKi ([2]; first of two values printed in the cell (not explained)),pKi ([2]; second of two values printed in the cell (not explained))
"C=C[C@@H]1C[C@]1(NC(=O)[C@@H]1C[C@@H]2CN1C(=O)[C@H](C1CCCC1)NC(=O)O[C@@H]1CCC[C@H]1CC/C=C/Cc1c(nc3ccccc3c1OC(=O)CC(C)C)O2)C(=O)NS(=O)(=O)C1CC1 [Example 41, (3aR,7S,10S,12R,21E,24aS)-7-cyclopentyl-10-({(1R,2S)-1-[(cyclopropylsulfonyl)carbamoyl]-2-ethenylcyclopropyl}carbamoyl)-5,8-dioxo-1,2,3,3a,5,6,7,8,11,12,20,23,24,24a-tetradecahydro-10H-9,12-methanocyclopenta[18,19][1,10,3,6]dioxadiazacyclononadecino[11,12-b]quinolin-19-yl 3-methylbutanoate]",7.14,8.18,–,–
"C=C[C@@H]1C[C@]1(NC(=O)[C@@H]1C[C@@H]2CN1C(=O)[C@H](C1CCCCC1)NC(=O)O[C@@H]1C[C@H]1CCCCCc1c(nc3ccccc3c1OCCCN1CC(F)(F)C1)O2)C(=O)NS(=O)(=O)C1(C)CC1 [Example 249, (1aR,5S,8S,10R,22aR)-5-cyclohexyl-17-[3-(3,3-difluoroazetidin-1-yl)propoxy]-N-[(1R,2S)-2-ethenyl-1-{[(1-methylcyclopropyl)sulfonyl]carbamoyl}cyclopropyl]-3,6-dioxo-1,1a,3,4,5,6,9,10,18,19,20,21,22,22a-tetradecahydro-8H-7,10-methanocyclopropa[18,19][1,10,3,6]dioxadiazacyclononadecino[11,12-b]quinoline-8-carboxamide]",8.12,–,10.59,9.30
"C=C[C@@H]1C[C@]1(NC(=O)[C@@H]1C[C@@H]2CN1C(=O)[C@H](C1CCCC1)NC(=O)O[C@@H]1CCC[C@H]1CC/C=C/Cc1c(nc3cc(Cl)ccc3c1OC)O2)C(=O)NS(=O)(=O)C1CC1 [Example 9, (3aR,7S,10S,12R,21E,24aS)-16-chloro-7-cyclopentyl-N-{(1R,2S)-1-[(cyclopropylsulfonyl)carbamoyl]-2-ethenylcyclopropyl}-19-methoxy-5,8-dioxo-1,2,3,3a,5,6,7,8,11,12,20,23,24,24a-tetradecahydro-10H-9,12-methanocyclopenta [18,19][1,10,3,6]dioxadiazacyclononadecino [11,12-b]quinoline-10-carboxamide]",8.54,9.85,–,–
"C=C[C@@H]1C[C@]1(NC(=O)[C@@H]1C[C@@H]2CN1C(=O)[C@H](C1CCCC1)NC(=O)O[C@H]1C[C@@H]1CC/C=C/Cc1c(nc3ccccc3c1OC)O2)C(=O)NS(=O)(=O)C1CC1 [Example 12, (1aS,5S,8S,10R,19E,22aS)-5-cyclo pentyl-N-{(1R,2S)-1-[(cyclopropylsulfonyl)carbamoyl]-2-ethenylcyclopropyl}-17-methoxy-3,6-dioxo-1,1a,3,4,5,6,9,10,18,21,22,22a-dodecahydro-8H-7,10-methanocyclopropa[18,19][1,10,3,6] dioxadiazacyclononadecino[11,12-&]quinoline-8-carboxamide]",6.47,8.48,–,–
"C=C[C@@H]1C[C@]1(NC(=O)[C@@H]1C[C@@H]2CN1C(=O)[C@H](C1CCCC1)NC(=O)O[C@@H]1CCC[C@H]1CCCCCc1c(nc3ccccc3c1OCCN1CC3CCC1C3)O2)C(=O)NS(=O)(=O)C1CC1 [Example 60, (3aR,7S,10S,12R,24aR)-19-[2-(2-azabicycle [2.2.1]hept-2-yl)ethoxy]-7-cyclo pentyl-N-{(1R,2S)-1-[(cyclopropylsulfonyl)carbamoyl]-2-ethenylcyclopropyl}-5,8-dioxo-1,2,3,3a,5,6,7,8,11,12,20,21,22,23,24,24a-hexadecahydro-10H-9,12-methanocyclopenta [18,19][1,10,3,6]dioxadiazacyclononadecino [11,12-b]quinoline-10-carboxamide]",7.92,9.21,–,–
"C=CC1C[C@]1(NC(=O)[C@@H]1C[C@@H]2CN1C(=O)[C@H](C1CCCC1)NC(=O)O[C@@H]1CCC[C@H]1CC/C=C/Cc1c(nc3ccccc3c1OCCN1C(=O)CCC1=O)O2)C(=O)NS(=O)(=O)C1CC1 (stereo partly drawn) [Example 76, (3aR,7S,10S,12R,21E,24a)-7-cyclo pentyl-N-{(1R,2S)-1-[(cyclopropylsulfonyl)carbamoyl]-2-ethenylcyclopropyl}-19-[2-(2,5-dioxopyrrolidin-1-yl)ethoxy]-5,8-dioxo-1,2,3,3a,5,6,7,8,11,12,20,23,24,24a-tetradeca hydro-10H-9,12-methanocyclopenta[18,19][1,10,3,6] dioxadiazacyclononadecino[11,12-b] quinoline-10-carboxamide]",9.15,10.05,–,–
"C=C[C@@H]1C[C@]1(NC(=O)[C@@H]1C[C@@H]2CN1C(=O)[C@H](C1CCCC1)NC(=O)O[C@@H]1CCC[C@H]1CC/C=C/Cc1c(nc3ccccc3c1OCCCO)O2)C(=O)NS(=O)(=O)C1CC1 [Example 72, (3aR,7S,10S,12R,21E,24aS)-7-cyclopentyl-N-{(1R,2S)-1-[(cyclopropylsulfonyl)carbamoyl]-2-ethenylcyclopropyl}-19-(3-hydroxypropoxy)-5,8-dioxo-1,2,3,3a,5,6,7,8,11,12,20,23,24,24a-tetradecahydro-10H-9,12-methanocyclopenta[18,19][1,10,3,6]dioxadiazacyclononadecino[11,12-b]quinoline-10-carboxamide]",8.96,> 10.80,–,–
"C=C[C@@H]1C[C@]1(NC(=O)[C@@H]1C[C@@H]2CN1C(=O)[C@H](C1CCCCC1)NC(=O)O[C@@H]1C[C@H]1CCCCCc1c(nc3ccccc3c1OCCCN1CCN(S(C)(=O)=O)CC1)O2)C(=O)NS(=O)(=O)C1(C)CC1 [Example 165, (1aR,5S,8S,10R,22aR)-5-cyclohexyl-N-[(1R,2S)-2-ethenyl-1-{[(1-methylcyclopropyl)sulfonyl]carbamoyl}cyclopropyl]-17-{3-[4-(methylsulfonyl)piperazin-1-yl]propoxy}-3,6-dioxo-1,1a,3,4,5,6,9,10, 18,19,20,21,22,22a-tetradecahydro-8H-7,10-methanocyclopropa[18,19][1,10,3,6] dioxadiazacyclononadecino[11,12-b] quinoline-8-carboxamide]",8.55,9.62,–,–
"C=C[C@@H]1C[C@]1(NC(=O)[C@@H]1C[C@@H]2CN1C(=O)[C@H](C(C)(C)C)NC(=O)O[C@@H]1C[C@H]1CCCCCc1c(nc3cc(C)ccc3c1OCCCN1CCCC1)O2)C(=O)NS(=O)(=O)C1(C)CC1 [Example 146, (1aR,5S,8S,10R,22aR)-5-tert-butyl-N-[(1R,2S)-2-ethenyl-1-{[(1-methylcyclopropyl)sulfonyl]carbamoyl}cyclopropyl]-14-methyl-3,6-dioxo-17-[3-(pyrrolidin-1-yl)propoxy]-1,1a,3,4,5,6,9,10,18, 19,20,21,22,22a-tetradecahydro-8H-7,10-methano cyclopropa[18,19][1,10,3,6] dioxadiazacyclonona decino[11,12-b]quinoline-8-carboxamide]",9.17,10.27,–,–
"C=C[C@@H]1C[C@]1(NC(=O)[C@@H]1C[C@@H]2CN1C(=O)[C@H](C(C)(C)C)NC(=O)O[C@@H]1CCC[C@H]1CCCCCc1c(nc3ccccc3c1OCCN1CCOCC1)O2)C(=O)NS(=O)(=O)N(C)C [Example 106, (3aR,7S,10S,12R,24aR)-7-tert-butyl-N-{(1R,2S)-1-[(dimethylsulfamoyl)carbamoyl]-2-ethenylcyclopropyl}-19-[2-(morpholin-4-yl)ethoxy]-5,8-dioxo-1,2,3,3a,5,6,7,8,11,12,20,21,22,23,24,24a-hexadecahydro-10H-9,12-methanocyclopenta[18,19][1,10,3,6]dioxadiazacyclononadecino[11,12-b]quinoline-10-carboxamide]",7.77,9.11,–,–
"C=C[C@@H]1C[C@]1(NC(=O)[C@@H]1C[C@@H]2CN1C(=O)[C@H](C(C)(C)C)NC(=O)O[C@@H]1CCC[C@H]1CCCCCc1c(nc3ccccc3c1O)O2)C(=O)NS(=O)(=O)C1(COCc2ccccc2)CC1 [Example 36, (3aR,7S,10S,12R,24aR)-N-{(1R,2S)-1-[({1-[(benzyloxy)methyl]cyclopropyl}sulfonyl)carbamoyl]-2-ethenylcyclopropyl}-7-tert-butyl-19-hydroxy-5,8-dioxo-1,2,3,3a,5,6,7,8,11,12, 20,21,22,23,24,24a-hexadeca hydro-10H-9,12-methanocyclopenta[18,19][1,10,3,6] dioxadiazacyclononadecino[11,12-b] quinoline-10-carboxamide]",8.49,9.82,–,–
"C=C[C@@H]1C[C@]1(NC(=O)[C@@H]1C[C@@H]2CN1C(=O)[C@H](CC1CCCCC1)NC(=O)O[C@@H]1C[C@H]1CCCCCc1c(nc3ccccc3c1OCCN1CCOCC1)O2)C(=O)NS(=O)(=O)C1(C)CC1 [Example 125, (1aR,5S,8S,10R,22aR)-5-(cyclohexylmethyl)-N-[(1R,2S)-2-ethenyl-1-{[(1-methylcyclopropyl)sulfonyl]carbamoyl}cyclopropyl]-17-[2-(morpholin-4-yl)ethoxy]-3,6-dioxo-1,1a,3,4,5,6,9,10,18,19,20, 21,22,22a-tetradecahydro-8H-7,10-methanocyclopropa [18,19][1,10,3,6]dioxadiazacyclo nonadecino[11,12-b]quinoline-8-carboxamide]",6.94,8.39,–,–
"CC[C@@H]1C[C@]1(NC(=O)[C@@H]1C[C@@H]2CN1C(=O)[C@H](C1CCCC1)NC(=O)O[C@@H]1CCC[C@H]1CCCCCc1c(nc3ccccc3c1OC)O2)C(=O)NS(=O)(=O)C1CC1 [Example 27, (3aR,7S,10S,12R,24aR)-7-cyclo pentyl-N-{(1R,2R)-1-[(cyclopropylsulfonyl)carbamoyl]-2-ethylcyclopropyl}-19-methoxy-5,8-dioxo-1,2,3,3a,5,6,7,8,11,12,20,21,22,23,24,24a-hexadeca hydro-10H-9,12-methanocyclopenta[18,19] [1,10,3,6]dioxadiazacyclononadecino[11,12-b] quinoline-10-carboxamide]",7.23,8.60,–,–

# — patent publication US9328138B2 (priority 2011, dated 2016)
